Data from patent publication US4563478A, “Method of tranquilizing” (priority 1981, dated 1986).

Assays:
[1] = system: Spinal Medulla of the Cat; assay: Effect on the spinal medulla of the cat; format: in vivo; conditions: 3-30 mg/kg i.v.
Acute toxicity, rat = conditions: in vivo, observation 14 days, read-out: DL50
Excerpt: (§1) |Observation period: 14 days

Acute toxicity, mouse = conditions: in vivo, observation 14 days, read-out: DL50
Excerpt: as §1

Schizosacch. pombe P1 = assay: Generic mutation; conditions: 1000-100-10 mcg/plate
EEG in Rabbits = format: in vivo
Procedure: At doses of 100 and 50 mg/kg i.v., electrical activity becomes evidently synchronous 10 minutes after administration, and lasts for about 3 hours. […] After 4 hours, behaviour and EEG become normal.

[2] = system: Plasmatic Prolactin Levels (PRL); assay: Effect of compound (V) administered intravenously to the rat on plasmatic prolactin levels (PRL); format: in vivo
Excerpt: 4. Effect of Compound (V) Administered Intravenously to the Rat, on the Plasmatic Prolactin Levels (PRL)

Sacch. cerevisiae D4 = assay: Genetic conversion; conditions: 1000-100-10 mcg/plate
animals (Rat, Mouse) = assay: Acute toxicity, symptoms observed in the animals (rat, mouse); format: in vivo
Procedure: Observation period: 14 days
(+) from 500 mg/kg upwards, the animals show sedation symptoms.

[3] = system: salmonella thyphimurium, 5 different strains; assay: Mutagenesis (Salmonella, 5 different strains); conditions: 1000-100-10 mcg/plate
Excerpt: Mutagenesis (salmonella thyphimurium, 5 different strains): 1000-100-10 mcg/plate: negative.

[4] = system: cGMP in the rat cerebellum; assay: Effect on the cGMP levels in the rat cerebellum; format: in vivo; conditions: i.v., 1 hour after administration, saline = 100
Procedure: The cGMP is measured 1 hour after administration.

[5] = Sub-acute toxicity, 4 weeks; format: in vivo; conditions: daily oral and intra-peritoneal 10, 20 and 40 mg/kg/day
Procedure: After daily oral and intra-peritoneal administration of 10,20 and 40 mg/kg/day of compound (V) for 4 weeks, no effect is observed on mortality, body weight, alimentation, hematological or urinary data, autoptic examination, weight or histology of the organs.

[6] = orally or parenterally; cited from earlier work
[7] = line marked (+), route not given

SMILES: O=C(O)CCCNCCC(=O)O [Compound (V), N-β-carboxyethyl-γ-aminobutyric acid]
- activity on the gamma-mononeuron [1]: dose-dependent reduction
- dorsal root potentials [1]: dose-dependent reduction
- mono and polysynaptic reflexes of the ventral root [1]: dose-dependent reduction
- LD50 at 336 h (Acute toxicity, rat; ip, intra-peritoneal): 877 mg/kg
- LD50 at 336 h (Acute toxicity, rat; [7]): 1000 mg/kg
- LD50 at 336 h (Acute toxicity, rat; oral): 1000 mg/kg
- LD50 at 336 h (Acute toxicity, mouse; ip, intra-peritoneal): 783 mg/kg
- LD50 at 336 h (Acute toxicity, mouse; [7]): 1000 mg/kg
- LD50 at 336 h (Acute toxicity, mouse; oral): 1000 mg/kg
- Generic mutation (Schizosacch. pombe P1): negative
- basal activity, cortical graph (EEG in Rabbits; 100 and 50 mg/kg i.v.): replaced by a slow continuous activity prevalent on the cortical graph
- behaviour (sedation) (EEG in Rabbits; 100 and 50 mg/kg i.v.): sedated, but responds to stimuli
- desynchronisation of cortical activity by vibro-stimulation and pain stimuli (EEG in Rabbits; 100 and 50 mg/kg i.v.): do not desynchronise cortical activity
- duration of synchronous electrical activity (EEG in Rabbits; 100 and 50 mg/kg i.v.): about 3 hours
- thalamus and hippocampus activity at 4-5 Hz (EEG in Rabbits; 100 and 50 mg/kg i.v.): replaced by an irregular graph and many slow waves
- time after administration at which electrical activity becomes synchronous (EEG in Rabbits; 100 and 50 mg/kg i.v.): 10 min
- time after which behaviour and EEG become normal (EEG in Rabbits; 100 and 50 mg/kg i.v.): 4 h
- sedative activity (EEG in Rabbits; conclusion from EEG in rabbits, i.v.): demonstrates sedative activity
- overcoming of the hematoencephalic barrier (EEG in Rabbits; rabbit, in vivo, iv): overcomes the hematoencephalic barrier
- PRL levels ([2]; 100 mg/kg i.v., 0 min): 4 ng/mL
- PRL levels ([2]; 100 mg/kg i.v., 15 min): 18 ± 5 ng/mL
- PRL levels ([2]; 100 mg/kg i.v., 30 min): 4 ± 6 ng/mL
- PRL levels ([2]; 100 mg/kg i.v., 60 min): 4 ng/mL
- PRL levels ([2]; 200 mg/kg i.v., 0 min): 4 ng/mL
- PRL levels ([2]; 200 mg/kg i.v., 15 min): 49 ± 10 ng/mL
- PRL levels ([2]; 200 mg/kg i.v., 30 min): 5 ± 1 ng/mL
- PRL levels ([2]; 200 mg/kg i.v., 60 min): 4 ng/mL
- PRL levels ([2]; 300 mg/kg i.v., 0 min): 4 ng/mL
- PRL levels ([2]; 300 mg/kg i.v., 15 min): 78 ± 5 ng/mL
- PRL levels ([2]; 300 mg/kg i.v., 30 min): 21 ± 8 ng/mL
- PRL levels ([2]; 300 mg/kg i.v., 60 min): 12 ng/mL
- effect on the prolactin release ([2]; intravenous, short intervals after administration): dose-dependent effect on the prolactin release
- Genetic conversion (Sacch. cerevisiae D4): doubtful
- mutagenic activity for the gene ADE 2 (Sacch. cerevisiae D4): not for the gene ADE 2
- mutagenic activity for the gene TPR 5 (Sacch. cerevisiae D4; only in the presence of a microsomial activator): a slight increase in mutagenic activity
- dose from which the animals show sedation symptoms (animals (Rat, Mouse); in vivo, po, 20160 min): ≥ 500 mg/kg
- symptoms before death (animals (Rat, Mouse); intra-peritoneal (++)): ataxia, lack of reaction to stimuli, and dyspnea
- Mutagenesis [3]: negative
- cGMP: Relative levels ([4]; 1 mg/kg): 95 ± 8
- cGMP: Relative levels ([4]; 10 mg/kg): 68 ± 4
- cGMP: Relative levels ([4]; 30 mg/kg): 60 ± 5
- cGMP: Relative levels ([4]; 100 mg/kg): 74 ± 6
- effect on alimentation [5]: no effect
- effect on autoptic examination [5]: no effect
- effect on body weight [5]: no effect
- effect on hematological or urinary data [5]: no effect
- effect on mortality [5]: no effect
- effect on weight or histology of the organs [5]: no effect

SMILES: NCCCC(=O)O [GABA, gamma-amino butyric acid]
- crossing of the blood-brain barrier (GABA) [6]: does not cross the blood-brain barrier
